# Source: article PMC8482771 (ACS Omega, 2021)
# Legend:
# Format in all cases: cell-based
# h-P2X4R [1] = biological target: T1, h-P2X4R (Homo sapiens, UniProt Q99571); experiment: Mode of inhibition: ATP dose-response curve without and with inhibitor, h-P2X4R
# T1 sequence (Q99571 1-388): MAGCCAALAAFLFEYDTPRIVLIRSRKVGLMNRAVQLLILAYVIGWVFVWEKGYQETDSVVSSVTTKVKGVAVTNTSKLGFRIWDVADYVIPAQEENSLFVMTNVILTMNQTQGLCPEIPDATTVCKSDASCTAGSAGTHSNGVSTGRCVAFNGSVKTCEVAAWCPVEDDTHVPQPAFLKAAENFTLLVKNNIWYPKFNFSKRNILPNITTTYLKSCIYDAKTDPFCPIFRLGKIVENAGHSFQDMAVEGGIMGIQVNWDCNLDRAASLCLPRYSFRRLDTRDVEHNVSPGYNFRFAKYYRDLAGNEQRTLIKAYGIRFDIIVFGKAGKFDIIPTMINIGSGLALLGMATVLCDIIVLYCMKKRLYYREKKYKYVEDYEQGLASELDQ
# h-P2X4R [2] = biological target: T1, h-P2X4R; experiment: Ca2+ influx assay
# h-P2X5 receptor = h-P2X5 receptor (Homo sapiens, UniProt Q93086); experiment: Ca2+ influx assay
# Chain of h-P2X5 receptor (Q93086 whole entry): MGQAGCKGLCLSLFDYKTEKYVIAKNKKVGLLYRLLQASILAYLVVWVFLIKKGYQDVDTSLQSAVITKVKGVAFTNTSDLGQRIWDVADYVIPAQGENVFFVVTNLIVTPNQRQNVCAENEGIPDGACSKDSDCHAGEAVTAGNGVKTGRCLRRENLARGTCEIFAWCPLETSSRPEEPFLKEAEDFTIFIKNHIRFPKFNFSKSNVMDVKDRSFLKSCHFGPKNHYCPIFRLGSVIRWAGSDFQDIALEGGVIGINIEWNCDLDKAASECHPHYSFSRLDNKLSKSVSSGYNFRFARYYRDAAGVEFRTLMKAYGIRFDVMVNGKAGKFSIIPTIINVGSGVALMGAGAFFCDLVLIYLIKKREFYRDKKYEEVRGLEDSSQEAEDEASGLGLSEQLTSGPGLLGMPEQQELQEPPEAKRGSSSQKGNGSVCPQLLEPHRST
# h-P2X2R [3] = biological target: T2, h-P2X2R (Homo sapiens, UniProt Q9UBL9); experiment: Ca2+ influx assay
# T2 sequence (Q9UBL9 1-471): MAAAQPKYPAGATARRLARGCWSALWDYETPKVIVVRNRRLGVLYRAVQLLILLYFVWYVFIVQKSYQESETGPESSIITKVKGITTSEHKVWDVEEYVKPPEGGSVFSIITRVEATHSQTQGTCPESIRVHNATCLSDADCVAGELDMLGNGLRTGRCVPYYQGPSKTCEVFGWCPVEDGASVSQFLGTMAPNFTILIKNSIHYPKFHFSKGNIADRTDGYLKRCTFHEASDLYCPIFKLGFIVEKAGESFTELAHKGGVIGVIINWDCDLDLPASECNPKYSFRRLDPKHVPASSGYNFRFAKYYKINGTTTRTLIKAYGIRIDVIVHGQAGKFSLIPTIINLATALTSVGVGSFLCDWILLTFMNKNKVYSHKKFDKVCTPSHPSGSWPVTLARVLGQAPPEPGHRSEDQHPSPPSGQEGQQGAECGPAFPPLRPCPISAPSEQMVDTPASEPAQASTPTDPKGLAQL
# h-P2X2R [4] = biological target: T2, h-P2X2R; experiment: Mode of inhibition: ATP dose-response curve without and with inhibitor, h-P2X2R
smiles,measurement,setting,value
"Nc1ncnc2c1ncn2[C@@H]1O[C@H](COP(=O)(O)OP(=O)(O)OP(=O)(O)O)[C@@H](O)[C@H]1O [ATP, adenosine triphosphate, reference compound]",EC50,h-P2X4R [1],2590 nM
same,EC50,h-P2X4R [2],9290 nM
same,EC50,h-P2X5 receptor,10600 nM
same,EC50,h-P2X2R [3],1480 nM
same,EC50,h-P2X2R [4],1080 nM
